From patent publication US5087562A, “Humoral hypercalcemic factor antagonists with modification at position 13 . . ” (Merck & Co., Inc., priority 1990, dated 1992)

Columns and labels:
[1] = biological target: T1, Bovine renal cortical plasma membranes (HCF cell surface receptor) (Bos taurus, UniProt Q1LZF7); experiment: HCF binding assay (radioligand receptor assay); settings: radioligand [Nle^8,18,(^125 I)-Tyr^34]bPTH(1-34)NH2, 30 min at 21° C
T1 construct: from tissue; host or cells: bovine renal cortex plasma membranes
T1 sequence (Q1LZF7 29-589): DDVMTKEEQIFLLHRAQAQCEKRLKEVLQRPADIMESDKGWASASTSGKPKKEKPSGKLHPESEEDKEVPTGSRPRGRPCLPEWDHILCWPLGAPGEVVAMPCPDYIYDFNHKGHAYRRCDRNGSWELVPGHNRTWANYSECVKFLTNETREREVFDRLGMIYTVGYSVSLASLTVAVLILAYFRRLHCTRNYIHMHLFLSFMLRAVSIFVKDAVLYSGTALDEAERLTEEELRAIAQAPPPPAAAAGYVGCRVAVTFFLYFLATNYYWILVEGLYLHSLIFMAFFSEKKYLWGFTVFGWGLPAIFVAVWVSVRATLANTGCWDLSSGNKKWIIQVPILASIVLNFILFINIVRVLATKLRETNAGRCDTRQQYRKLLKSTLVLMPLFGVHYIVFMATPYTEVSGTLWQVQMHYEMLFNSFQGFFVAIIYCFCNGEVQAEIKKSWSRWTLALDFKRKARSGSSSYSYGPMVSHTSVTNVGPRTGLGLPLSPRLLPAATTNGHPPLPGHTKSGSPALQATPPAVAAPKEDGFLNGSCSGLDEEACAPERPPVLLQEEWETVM
Procedure: HCF analogues were analysed in a new receptor assay which modified the assay reported in Rosenblatt et al., Endocrin 107: 545-550 (1980). The binding assay used [Nle^8,18, (^125 I)-Tyr^34 ]bPTH (1-34)NH2 which was purified by HPLC (Novapak C18, 32-35% CH3 CN in 0.1% TFA) and was stored as aliquots in 25 mM TrisHCl/1%BSAat -70° C. Bovine renal cortical plasma membranes were incubated with radioligand (25,000 cpm) in a Tris-containing buffer (250 μl) for 30 min. at 21° C. Once equilibrium was reached, bound and free radioligand were separated by centrifugation.
High specific binding (85%) to bovine renal cortical membranes was obtained consistently.
The assay reported on page 546 in Rosenblatt, et al. is as follows:
Radioligand binding assay: A PTH-binding assay based on the sulfur-free ^125 I-labeled hormone analog, [Nle-8,Nle-18,Tyr-34]-bPTH-(1-34)amide,was employed (4). The assay is specific and saturable with regard to PTH binding, and binding avidity in this system correlates closely with biological acitibity for multiple PTH agonist fragments and analogs. […] Inhibition of specific binding of radioligand was assessed for each fragment over several log orders of magnitude. […] In each assay, inhibition of radioligand binding was determined in triplicate at each concentration of peptide used.

[2] = system: bovine renal membrane adenylate cyclase; settings: bovine renal cortical membranes; quoted from Horiuchi et al.; cited from earlier work

| Kb [1] [nM] | Molecule | potency in adenylate cyclase assay (stimulation) [2] |
| --- | --- | --- |
| 20 ± 3 | CC[C@H](C)[C@H](NC(=O)[C@H](CC(C)C)NC(=O)[C@H](Cc1c[nH]cn1)NC(=O)[C@H](Cc1c[nH]cn1)NC(=O)[C@H](CC(C)C)NC(=O)[C@H](Cc1ccccc1)NC(=O)[C@H](Cc1ccccc1)NC(=O)[C@H](CCCNC(=N)N)NC(=O)[C@H](CCCNC(=N)N)NC(=O)[C@H](CCCNC(=N)N)NC(=O)[C@H](CC(C)C)NC(=O)[C@H](CC(=O)O)NC(=O)[C@H](CCC(N)=O)NC(=O)[C@@H](NC(=O)[C@H](CO)NC(=O)[C@H](CCCCNC(=O)CCc1ccccc1)NC(=O)[C@@H](Cc1c[nH]c2ccccc12)NC(=O)[C@H](CC(C)C)NC(=O)[C@H](CC(=O)O)NC(=O)[C@H](Cc1c[nH]cn1)NC(=O)CCC(C)C)[C@@H](C)CC)C(=O)N[C@@H](C)C(=O)N[C@@H](CCC(=O)O)C(=O)N[C@H](C(=O)N[C@@H](Cc1c[nH]cn1)C(=O)N[C@H](C(=O)N[C@@H](C)C(N)=O)[C@@H](C)O)[C@@H](C)CC [desamino [Leu^11, D-Trp^12, Lys^13 (N^ε --CO(CH2)2 -Phenyl)]hHCF(8-34)NH2] |  |
|  | hHCF-(1-34)NH2 | potency comparable to PTH |
